Reference: US12286632B2, “Rationally-designed synthetic peptide shuttle agents for delivering polypeptide cargos from an extracellular space to the cytosol and/or nucleus of a target eukaryotic cell, uses thereof, methods and kits relating to same” (Feldan Bio Inc., priority 2016, dated 2025)

What was measured:
rat parietal cortex = experiment: In vivo GFP-NLS delivery by stereotaxic injection, fluorescence microscopy of brain slices; conditions: shuttle 20 μM + GFP-NLS 20 μM, 5 μL injected over 10 min; sacrificed 2 h after surgery
Method: In separate sterile 1.5-mL tubes, shuttle agent His-CM18-PTD4 was diluted in sterile distilled water at room temperature. […] One negative control was included for the experiment, which corresponds to the injection of the GFP-NLS alone.
Bilateral injections were performed in the parietal cortex of three rats. In the left parietal cortex (ipsilateral), a mix composed of the shuttle agent (20 μM) and the GFP-NLS (20 μM) was injected, and in the right parietal cortex (contralateral), only the GFP-NLS (20 μM) was injected as a negative control. For surgical procedures, […] were anesthetized with isoflurane. Then the animal was placed in a stereotaxic frame, and the skull surface was exposed. Two holes were drilled at the appropriate sites to allow bilateral infusion of the shuttle/cargo mix or GFP-NLS alone (20 μM) with 5-μL Hamilton syringe. Antero-posterior (AP), lateral (L), and dorso-ventral (DV) coordinates were taken relative to the bregma: (a) AP+0.48 mm, L±3 mm, V-5 mm; (b) AP-b 2 mm, L±1.3 mm, V-1.5 mm; (c) AP-2.6 mm, L 1.5 mm, V-1.5 mm. The infused volume of the shuttle/cargo mix or cargo alone was 5 μL per injection site and the injection was performed for 10 minutes. […]
Dorso-ventral rat brain slices were collected and analysed by fluorescence microscopy and results are shown in at 4× (FIG. 48A), 10× (FIG. 48C) and 20× (FIG. 48D) magnifications. […]

[1] = tested on: 293T, Balb3T3, CHO, Myoblasts, Jurkat, CA46, HT2 and NIH3T3 cells; experiment: GFP-NLS transduction in several adherent and suspension cells, visualization by microscopy; assay type: cell-based; conditions: 35 μM, 10 seconds (adherent) or 5 μM, 15 seconds (suspension); GFP-NLS 5 μM
Method: GFP-NLS recombinant protein (5 μM; see Example 5.1) was co-incubated with 35 μM of His-CM18-PTD4 and exposed to adherent cells for 10 seconds using […], or was co-incubated with 5 μM of His-CM18-PTD4 and exposed to suspension cells for 15 seconds using Protocol B, as described in Example 9.1. After washing the cells, GFP fluorescence was visualized by bright field and fluorescence microscopy. Sample images captured at 10× magnifications showing GFP fluorescence are shown for 293T (FIG. 37A), Balb3T3 (FIG. 37B), CHO (FIG. 37C), Myoblasts (FIG. 370), Jurkat (FIG. 37E), CA46 (FIG. 37F), HT2 (FIG. 37G), and NIH3T3 (FIG. 37H) cells. The insets show corresponding flow cytometry results performed as described in Example 3.3, indicating the percentage of GFP-NLS-positive cells.
Nuclear localization of the GFP-NLS was further confirmed in fixed and permeabilized myoblasts using cell immuno-labelling as described in Example 3.2a. GFP-NLS was labeled using a primary mouse monoclonal anti-GFP antibody (Feldan, #A017) and a secondary goat anti-mouse Alexa™-594 antibody (Abcam #150116). Nuclei were labelled with DAPI. Sample results for primary human myoblast cells are shown in FIG. 38, in which GFP immuno-labelling is shown in FIG. 38A, and an overlay of the GFP immuno-labelling and DAPI labelling is shown in FIG. 38B.

HeLa cells = experiment: GFP-NLS and mCherry-NLS co-transduction, visualization by microscopy; assay type: cell-based, Human; conditions: each cargo 5 μM; shuttle 35 μM; 10 seconds, Protocol B
Method: The media in wells was removed, cells were washed once with PBS previously warmed at 37° C., and the shuttle agent/cargo mixture was then added to cover all cells for the desired length of time. The shuttle agent/cargo mixture in wells was removed, the cells were washed once with PBS, and fresh complete medium was added. Before analysis, the cells were washed once with PBS and fresh complete medium was added.
• GFP-NLS recombinant protein (5 μM; see Example 5.1) and mCherry™-NLS recombinant protein (5 μM) were co-incubated together with 35 μM of His-CM18-PTD4, and then exposed to HeLa cells for 10 seconds using Protocol B as described in Example 9.1. After washing steps, the cells were immediately visualized by bright field and fluorescence microscopy at 20× magnifications as described in Example 3.2. Sample results are shown in FIG. 28, in which corresponding images showing bright field (FIG. 28A), DAPI fluorescence (FIG. 28B), GFP-NLS fluorescence (FIG. 28C), and mCherry™-NLS fluorescence (FIG. 28D) are shown. White triangle windows indicate examples of areas of co-labelling between GFP-NLS and mCherry™ fluorescence signals in cell nuclei. […] 9.7 GFP-NLS Transduction by his-CM18-PTD4 in THP-1 Suspension Cells: Flow Cytometry

Compound: CC[C@H](C)[C@H](NC(=O)[C@H](CCCCN)NC(=O)[C@H](CCCCN)NC(=O)[C@H](Cc1ccccc1)NC(=O)[C@H](CC(C)C)NC(=O)[C@H](CCCCN)NC(=O)[C@H](Cc1c[nH]c2ccccc12)NC(=O)[C@H](CCCCN)NC(=O)[C@H](Cc1c[nH]cn1)NC(=O)[C@H](Cc1c[nH]cn1)NC(=O)[C@H](Cc1c[nH]cn1)NC(=O)[C@H](Cc1c[nH]cn1)NC(=O)[C@H](Cc1c[nH]cn1)NC(=O)[C@@H](N)Cc1c[nH]cn1)C(=O)NCC(=O)N[C@@H](C)C(=O)N[C@H](C(=O)N[C@@H](CC(C)C)C(=O)N[C@@H](CCCCN)C(=O)N[C@H](C(=O)N[C@@H](CC(C)C)C(=O)N[C@H](C(=O)N[C@H](C(=O)NCC(=O)N[C@@H](Cc1ccc(O)cc1)C(=O)N[C@@H](C)C(=O)N[C@@H](CCCNC(=N)N)C(=O)N[C@@H](C)C(=O)N[C@@H](C)C(=O)N[C@@H](C)C(=O)N[C@@H](CCCNC(=N)N)C(=O)N[C@@H](CCC(N)=O)C(=O)N[C@@H](C)C(=O)N[C@@H](CCCNC(=N)N)C(=O)N[C@@H](C)C(=O)O)[C@@H](C)O)[C@@H](C)O)C(C)C)C(C)C [His-CM18-PTD4]
- in vivo delivery of GFP-NLS to cell nuclei (rat parietal cortex): delivery of the GFP-NLS in the nucleus of cells from the deeper layers of the parietal cortex (injection site) to the corpus callus and the dorsal level of the striatum (putamen)
- GFP-NLS nuclear delivery (microscopy) [1]: successfully delivered to the nucleus of all the tested cells
- co-delivery of GFP-NLS and mCherry-NLS (microscopy) (HeLa cells): successfully delivered together to the nucleus
